Reference: article PMC10526274, “Epithelial-Immune Cell Crosstalk Determines the Activation of Immune Cells In Vitro by the Human Cathelicidin LL-37 at Low Physiological Concentrations” (Biomolecules, 2023)
Several values for one entry are separate records, joined by “and”; a condition that tells them apart may be missing. Equal entries are not always repeated.

System: Caco-2/NKT cell co-culture
Assay: Multiplex xMAP cytokine levels, Caco-2/NKT co-culture stimulated with LL-37
Assay type: cell-based, human
Conditions: NKT/Caco-2 co-culture, 1 µM LL-37, 24 h, n=2
Experimental: Caco-2 cell line (ATCC HTB-37) was cultured in a humidified CO2-incubator (5% CO2, 37 °C) in the complete DMEM/F12 (1:1) medium (Gibco, Waltham, MA, USA) containing 10% fetal bovine serum (FBS, Gibco) and 1X antibiotic–antimycotic solution (Gibco). To stabilize the cell phenotype, Caco-2 cells have been subcultivated three times before seeding on the filter supports. Then, Caco-2 cells were seeded at a density of 2 × 10^5 cells/cm^2 onto 24-well Millicell cell culture inserts (PC, 0.4-μm pore size, 0.6 cm^2 surface area, cat. #PIHP01250) (Millipore, Burlington, MA, USA), precoated with 0.2% bovine gelatin (Sigma-Aldrich, Saint Louis, MO, USA). After seeding, Caco-2 cells were grown in the same complete medium with re-feeding every 2–3 days until polarization of the monolayer occurred. The functional polarity of the monolayers was developed when transepithelial electrical resistance (TEER) between the apical and basolateral surfaces of the monolayers reached […] as measured by the electrical resistance system Millicell-ERS Voltohmmeter (Millipore, Burlington, MA, USA). Grown cell monolayers were used in transport and cytokine production experiments between the 21st and 29th days.
NKT cells (CD3^+CD56^+) were isolated from PBMCs using the FACSVantageDiVa cell sorter (Becton Dickinson, Franklin Lakes, NJ, USA), equipped with 405, 488, and 643 nm lasers (Supporting Materials, Figure S1). PBMCs were re-suspended in the FACS buffer (PBS containing 0.5% BSA and 2 mM EDTA) and labeled with monoclonal mouse anti-human CD3-APC (clone UCHT1, Beckman Coulter, Pasadena, CA, USA) and mouse anti-human CD56-PE/Cy7 (clone N901, Beckman Coulter) antibodies to isolate NKT cells (CD3^+CD56^+).
Sorted NKT cells were expanded by stimulation with Dynabead Human T-Expander CD3/CD28 magnetic beads (Gibco) in RPMI-1640 medium containing 10% FBS, 1X antibiotic–antimycotic solution, 100 U/mL IL-2 (Gibco), and 50 ng/mL IL-7 (Sci-Store). CD3/CD28 magnetic beads were subsequently removed with a magnet. Expanded NKT cells were washed out of the cytokines and cryopreserved.
Primary blood monocytes, moDCs, and NKT cells were seeded in 600 µL of complete RPMI-1640 with 10% Human AB serum (Capricorn Scientific, Ebsdorfergrund, Germany) and supplemented with 1X antibiotic–antimycotic solution into the wells of 24-well plates at a density of 3–7 × 10^5 cells/well 24 h before the experiment. Then, 24 h later, the medium in each well was replaced by the same medium with 1 µM of LL-37 for the sample wells or fresh medium alone for the control wells, and the permeable inserts with the Caco-2 monolayer with TEER > 400 Ω × cm^2, containing 400 μL of the complete medium in their apical chamber, were immediately placed into the appropriate wells. Also, inserts with the Caco-2 monolayer were placed in cell-free wells of 24-well plates in the same complete RPMI-1640 medium with or without 1 µM of LL-37 as controls. Cells were kept in a CO2-incubator (5% CO2, 37 °C) for another 24 h. Then, culture medium from each well was collected, centrifuged, and frozen at −70 °C.
To quantitatively evaluate a broad spectrum of analytes secreted by human cell cultures at the protein level, multiplex xMAP technology was used. […]

Question: Which results are given for “LL-37: the only human cathelicidin, host defense antimicrobial peptide of 37 a.a. residues, produced by solid-phase peptide synthesis”?
Answer: IL-18 level (control 0.74): 0.52 pg/mL; MDC level (control 1.37): 0.58 pg/mL; IL-2 level (control 1.49): 1.16 pg/mL; IL-6 level (control 1.7): 1.09 pg/mL; FLT-3L level (control 2.11): 1.96 pg/mL; IL-8 level (control 3.74): 5.93 pg/mL; IFNa2 level (control 4): <3.88↓ pg/ml; IL-4 level (control 4.85): 6.05 pg/mL; IL-9 level (control 5.8): 5.8 pg/mL; IFNg level (control 6.08): 5.17 pg/mL; MCP-3 level (control 7.84): 7.84 pg/mL; IL-1a level (control 9.17): 10.05 pg/mL; TNFb level (control 12.53): 16.33 pg/mL; TNFa level (control 15.69): 16.61 pg/mL; sCD40L level (control 23.6): 23.6 pg/mL; IL-22 level (control 27.2, p = 0.093): 34 pg/mL and 34.37 pg/mL; PDGF-AB/BB level (control 29.35): 41.49 pg/mL; GROa level (control 30.74): 50.06 pg/mL; FGF-2 level (control 35.81): 41.88 pg/mL; IL-27 level (control 35.81): 51.37 pg/mL; MIP-1b level (control 36.43): 42.84 pg/mL; MIG level (control 53.25): 70 pg/mL; M-GSF level (control 55.64): 47.83 pg/mL; GM-CSF level (control 69.7): 65.72 pg/mL; IP-10 level (control 141.7): 206.59 pg/mL; IL-13 level (control 179.71): 178.25 pg/mL; PDGF-AA level (control 200.08): 182.58 pg/mL; IL-5 level (control 246.49): 258.81 pg/mL; MIP-1a level (control 399.48): 471.29 pg/mL; RANTES level (control 718.58): 908.6 pg/mL; VEGFa level (control 951.17): 1907 pg/mL; IL-7 level (control <0.30): <0.30↓ pg/ml; IL-3 level (control <0.55): <0.55↓ pg/ml; TGF-a level (control <0.68): <0.68↓ pg/ml; IL-17A level (control <0.70): <0.70↓ pg/ml; IL-1b level (control <0.74): <0.74↓ pg/ml; IL-1RA level (control <0.93): <0.93↓ pg/ml; IL-10 level (control <1.35): <1.35↓ pg/ml; MCP-1 level (control <1.35): 2.13 pg/mL; IL-15 level (control <1.54): <1.54↓ pg/ml; EGF level (control <1.60): 2.26 pg/mL; IL-12 (p70) level (control <1.71): <1.71↓ pg/ml; G-CSF level (control <2.32): <2.32↓ pg/ml; Eotaxin level (control <2.91): <2.91↓ pg/ml; IL-12 (p40) level (control <3.33): <3.33↓ pg/ml; IL-17F level (control <12.19): <12.19↓ pg/ml; Fractalkine level (control <18.09): 19.78 pg/mL; IL-17E/IL-25 level (control <19.43): <19.43↓ pg/ml
